Our source for the EC50 values is patent US8309552B2, “Immunomodulating heterocyclic compounds” (Medigene AG, priority 2003, dated 2012).

Each structure is given as a SMILES string.

The target in the experiment is T1, CD80-CD28 interaction (Homo sapiens, UniProt P33681).
T1 sequence (P33681 35-242 limits assumed): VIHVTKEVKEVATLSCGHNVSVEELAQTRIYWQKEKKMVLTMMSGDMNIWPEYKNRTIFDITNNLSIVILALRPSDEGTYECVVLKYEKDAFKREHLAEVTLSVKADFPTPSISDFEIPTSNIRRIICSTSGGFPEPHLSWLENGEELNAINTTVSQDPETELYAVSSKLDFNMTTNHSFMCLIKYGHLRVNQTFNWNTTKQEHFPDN
As to the kind of experiment: Homogenous Time Resolved Fluorescence (HTRF) assay, cell free. The experiment is classed as binding. The settings on record: cell free HTRF assay; concentration series 100 μM-1.7 nM; 4 hours at room temperature; read-out: Activity (EC50 in the HTRF assay). Summed up:
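Europium and APC labels were linked through antibodies to CD28 and CD80 fusion proteins. Compounds were tested at 100 μM-1.7 nM for 4 h at room temperature in 50 mM Tris-HCl, 150 mM NaCl pH7.8, 0.1% BSA. Emission read at 665 and 615 nm (excitation 340 nm); non-specific signal measured with C215 Fab in place of CD80; EC50 reported in bands.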
Background: Time-resolved FRET reads energy transfer from a long-lived donor to a nearby acceptor.
As a reminder, the EC50 is the concentration needed to bring the measured effect to its halfway point. Turning to `O=C(NC1CCN(Cc2ccccc2)CC1)c1ccc(-n2[nH]c3c(nnc4c(F)cccc43)c2=O)cc1` [Example 323], the EC50 was below 1000 nM.

For `CN(C)CCNC(=O)Nc1ccc(-n2[nH]c3c(nnc4c(F)cccc43)c2=O)cc1` [Example 324], the EC50 was below 1000 nM.

For the molecule `O=C(NCCCCN1CCCC1)c1ccc(-n2[nH]c3c(nnc4ccc(F)cc43)c2=O)cc1` [Example 325], the EC50 was below 1000 nM.

For `CCN(CC)CCNC(=O)c1ccc(-n2[nH]c3c(nnc4ccc(F)cc43)c2=O)cc1` [Example 326], the EC50 was below 1000 nM.

Turning to `CN1CCCC1CCNC(=O)c1ccc(-n2[nH]c3c(nnc4ccc(F)cc43)c2=O)cc1` (centres unmarked) [Example 327], the EC50 was below 1000 nM.

As to `O=C(NC1CCN(Cc2ccccc2)CC1)c1ccc(-n2[nH]c3c(nnc4ccc(F)cc43)c2=O)cc1` [Example 328], the EC50 is below 1000 nM.

Consider `CCCCN(CCCC)CCCNC(=O)c1ccc(-n2[nH]c3c(nnc4ccc(F)cc43)c2=O)cc1` [Example 329], for which the EC50 was below 1000 nM.

With `CCN(CC)CCCNC(=O)c1ccc(-n2[nH]c3c(nnc4ccc(F)cc43)c2=O)cc1` [Example 330], the EC50 was below 1000 nM.

As to `O=C(NCCCN1CCCC1)c1ccc(-n2[nH]c3c(nnc4ccc(F)cc43)c2=O)cc1` [Example 331], the EC50 is below 1000 nM.

As for `CC1CCCCN1CCCNC(=O)c1ccc(-n2[nH]c3c(nnc4ccc(F)cc43)c2=O)cc1` (centres unmarked) [Example 332], the EC50 was below 1000 nM.

Turning to `CC=CCNC(=O)c1ccc(-n2[nH]c3c(nnc4c(F)cccc43)c2=O)cc1` [Example 333], the EC50 is below 1000 nM.

In the case of `O=C(CN1CCC(NC(=O)c2ccc(-n3[nH]c4c(nnc5c(F)cccc54)c3=O)cc2)CC1)c1ccccc1` [Example 334], the EC50 is below 1000 nM.

As to `CCOCCN1CCC(NC(=O)c2ccc(-n3[nH]c4c(nnc5c(F)cccc54)c3=O)cc2)CC1` [Example 335], the concentration for a half-maximal effect (EC50) was below 1000 nM.

For `O=C(NC1CCN(CCC2CCCCC2)CC1)c1ccc(-n2[nH]c3c(nnc4c(F)cccc43)c2=O)cc1` [Example 336], the EC50 was below 1000 nM.

Regarding `CC(c1ccccc1)N1CCC(NC(=O)c2ccc(-n3[nH]c4c(nnc5c(F)cccc54)c3=O)cc2)CC1` (centres unmarked) [Example 337], the EC50 was below 1000 nM.

On to `O=C(NCCCCN1CCOCC1)c1ccc(-n2[nH]c3c(nnc4ccccc43)c2=O)cc1` [Example 338], for which the EC50 was below 1000 nM.

Turning to `O=C(NCCCCN1CCCCC1)c1ccc(-n2[nH]c3c(nnc4ccccc43)c2=O)cc1` [Example 339], the EC50 is below 1000 nM.

With `C=C(C)CNC(=O)c1ccc(-n2[nH]c3c(nnc4c(F)cccc43)c2=O)cc1` [Example 340], the EC50 was below 1000 nM.

Take `CCCNCCNC(=O)c1ccc(-n2[nH]c3c(nnc4c(F)cccc43)c2=O)cc1` [Example 341]: the EC50 was below 1000 nM.

For the molecule `CCN(CC)CCNC(=O)c1ccc(-n2[nH]c3c(nnc4c(F)cccc43)c2=O)cc1` [Example 342], the EC50 is below 1000 nM.

For `CN1CCCC1CCNC(=O)c1ccc(-n2[nH]c3c(nnc4c(F)cccc43)c2=O)cc1` (centres unmarked) [Example 343], the EC50 was below 1000 nM.

For the molecule `CCCCNCCNC(=O)c1ccc(-n2[nH]c3c(nnc4c(F)cccc43)c2=O)cc1` [Example 344], the EC50 was below 1000 nM.

For `CCN(CC)CCCNC(=O)c1ccc(-n2[nH]c3c(nnc4c(F)cccc43)c2=O)cc1` [Example 346], the EC50 was below 1000 nM.

Regarding `O=C(NCCNCc1ccccc1)c1ccc(-n2[nH]c3c(nnc4c(F)cccc43)c2=O)cc1` [Example 347], the EC50 is below 1000 nM.

Take `CC(C)NCCCNC(=O)c1ccc(-n2[nH]c3c(nnc4c(F)cccc43)c2=O)cc1` [Example 348]: the EC50 is below 1000 nM.

For the molecule `NCCCCNC(=O)c1ccc(-n2[nH]c3c(nnc4c(F)cccc43)c2=O)cc1` [Example 351], the EC50 was below 1000 nM.

In the case of `O=C(NCCCN1CCCC1)c1ccc(-n2[nH]c3c(nnc4c(F)cccc43)c2=O)cc1` [Example 352], the EC50 is below 1000 nM.

For the molecule `CCCCOCCCNC(=O)c1ccc(-n2[nH]c3c(nnc4c(F)cccc43)c2=O)cc1` [Example 354], the EC50 was below 1000 nM.

Consider `CNCCCNC(=O)c1ccc(-n2[nH]c3c(nnc4c(F)cccc43)c2=O)cc1` [Example 355], for which the EC50 was below 1000 nM.

As to `CNCCNC(=O)c1ccc(-n2[nH]c3c(nnc4c(F)cccc43)c2=O)cc1` [Example 356], the EC50 is below 1000 nM.

Regarding `CCNCCNC(=O)c1ccc(-n2[nH]c3c(nnc4c(F)cccc43)c2=O)cc1` [Example 357], the EC50 is below 1000 nM.

Regarding `CC1CCCCN1CCCNC(=O)c1ccc(-n2[nH]c3c(nnc4c(F)cccc43)c2=O)cc1` (centres unmarked) [Example 358], the concentration for a half-maximal effect (EC50) is below 1000 nM.

Regarding `CC(Cc1c[nH]c2ccccc12)NC(=O)c1ccc(-n2[nH]c3c(nnc4c(F)cccc43)c2=O)cc1` (centres unmarked) [Example 359], the EC50 is below 1000 nM.

Take `O=C(NCCc1ccccc1Cl)c1ccc(-n2[nH]c3c(nnc4c(F)cccc43)c2=O)cc1` [Example 360]: the EC50 was 1000 to 10000 nM.

Regarding `Cc1ccc(CCNC(=O)c2ccc(-n3[nH]c4c(nnc5c(F)cccc54)c3=O)cc2)cc1` [Example 362], the EC50 lay in the range of 1000 to 10000 nM.

As for `O=C(NCCc1ccc(Cl)cc1)c1ccc(-n2[nH]c3c(nnc4c(F)cccc43)c2=O)cc1` [Example 363], the EC50 is 1000 to 10000 nM.

With `O=C(NCCc1cccc(Cl)c1)c1ccc(-n2[nH]c3c(nnc4c(F)cccc43)c2=O)cc1` [Example 364], the EC50 was 1000 to 10000 nM.

In the case of `O=C(NCCc1cccc(Br)c1)c1ccc(-n2[nH]c3c(nnc4c(F)cccc43)c2=O)cc1` [Example 365], the EC50 is above 10000 nM.

As for `Cc1ccccc1CCNC(=O)c1ccc(-n2[nH]c3c(nnc4c(F)cccc43)c2=O)cc1` [Example 366], the EC50 was in the range of 1000 to 10000 nM.

Take `O=C(NCCc1ccccc1Br)c1ccc(-n2[nH]c3c(nnc4c(F)cccc43)c2=O)cc1` [Example 368]: the EC50 was in the range of 1000 to 10000 nM.

In the case of `O=C(NCCc1c(F)cccc1Cl)c1ccc(-n2[nH]c3c(nnc4c(F)cccc43)c2=O)cc1` [Example 369], the EC50 lay within 1000 to 10000 nM.

Turning to `O=C(NCCc1ccc(Cl)cc1Cl)c1ccc(-n2[nH]c3c(nnc4c(F)cccc43)c2=O)cc1` [Example 370], the EC50 fell in the range of 1000 to 10000 nM.

With `O=C(NCCc1c(Cl)cccc1Cl)c1ccc(-n2[nH]c3c(nnc4c(F)cccc43)c2=O)cc1` [Example 371], the EC50 fell in the range of 1000 to 10000 nM.

In the case of `O=C(NCCc1ccc(Cl)c(Cl)c1)c1ccc(-n2[nH]c3c(nnc4c(F)cccc43)c2=O)cc1` [Example 372], the EC50 is 1000 to 10000 nM.

Consider `O=C(NCCc1cccc(F)c1)c1ccc(-n2[nH]c3c(nnc4c(F)cccc43)c2=O)cc1` [Example 373], for which the EC50 was in the range of 1000 to 10000 nM.

Regarding `CC1(C)CC(NC(=O)c2ccc(-n3[nH]c4c(nnc5c(F)cccc54)c3=O)cc2)CC(C)(C)N1` [Example 374], the EC50 is below 1000 nM.

In the case of `CC(C)(C)NC(=O)c1ccc(-n2[nH]c3c(nnc4c(F)cccc43)c2=O)cc1` [Example 375], the EC50 was below 1000 nM.

Turning to `C=CCNC(=O)c1ccc(-n2[nH]c3c(nnc4c(F)cccc43)c2=O)cc1` [Example 377], the EC50 is below 1000 nM.

Take `CC(C)(C)c1ccc(CN2CCC(NC(=O)c3ccc(-n4[nH]c5c(nnc6c(F)cccc65)c4=O)cc3)CC2)cc1` [Example 378]: the EC50 was below 1000 nM.

In the case of `CS(=O)(=O)c1ccc(CN2CCC(NC(=O)c3ccc(-n4[nH]c5c(nnc6c(F)cccc65)c4=O)cc3)CC2)cc1` [Example 380], the EC50 was below 1000 nM.

Consider `CCCCNCCNC(=O)c1ccc(-n2[nH]c3c(nnc4ccc(F)cc43)c2=O)cc1` [Example 384], for which the EC50 is below 1000 nM.

As for `CC(C)NCCCNC(=O)c1ccc(-n2[nH]c3c(nnc4ccc(F)cc43)c2=O)cc1` [Example 385], the EC50 is below 1000 nM.

On to `O=C(NCCCCO)c1ccc(-n2[nH]c3c(nnc4ccc(F)cc43)c2=O)cc1` [Example 386], for which the EC50 is below 1000 nM.

Regarding `CN(C)CCCNC(=O)c1ccc(-n2[nH]c3c(nnc4cccc(F)c43)c2=O)cc1` [Example 387], the EC50 is below 1000 nM.

Consider `O=C(NCCCCN1CCCC1)c1ccc(-n2[nH]c3c(nnc4cccc(F)c43)c2=O)cc1` [Example 388], for which the EC50 is below 1000 nM.

As to `O=C(NCCCNC1CCCCC1)c1ccc(-n2[nH]c3c(nnc4cccc(F)c43)c2=O)cc1` [Example 389], the EC50 was below 1000 nM.

For `CN1C(C)(C)CC(NC(=O)c2ccc(-n3[nH]c4c(nnc5cccc(F)c54)c3=O)cc2)CC1(C)C` [Example 390], the EC50 was below 1000 nM.

Regarding `CN1CCC(NC(=O)c2ccc(-n3[nH]c4c(nnc5cccc(F)c54)c3=O)cc2)CC1` [Example 391], the EC50 was below 1000 nM.

Turning to `CCN(CC)CCCNC(=O)c1ccc(-n2[nH]c3c(nnc4cccc(F)c43)c2=O)cc1` [Example 392], the EC50 is below 1000 nM.

In the case of `O=C(NCCCN1CCCC1)c1ccc(-n2[nH]c3c(nnc4cccc(F)c43)c2=O)cc1` [Example 393], the EC50 was below 1000 nM.

For `CC1CCCCN1CCCNC(=O)c1ccc(-n2[nH]c3c(nnc4cccc(F)c43)c2=O)cc1` (centres unmarked) [Example 394], the EC50 is below 1000 nM.

Turning to `CC(C)NCCCNC(=O)c1ccc(-n2[nH]c3c(nnc4cccc(F)c43)c2=O)cc1` [Example 395], the EC50 is below 1000 nM.

As to `CNCCCNC(=O)c1ccc(-n2[nH]c3c(nnc4cccc(F)c43)c2=O)cc1` [Example 396], the EC50 was below 1000 nM.

Take `O=C(NCCCN1CCOCC1)c1ccc(-n2[nH]c3c(nnc4cccc(F)c43)c2=O)cc1` [Example 397]: the EC50 was below 1000 nM.

In the case of `CCCCN(CCCC)CCCNC(=O)c1ccc(-n2[nH]c3c(nnc4cccc(F)c43)c2=O)cc1` [Example 398], the EC50 is below 1000 nM.
